Patent publication US8569578B1, “Generating transgenic potatoes with novel resistance to potato cyst nematodes by silencing nematode parasitism genes of CLE -1 and CLE-4s” (The United States of America, as represented by the …, priority 2009, dated 2013)
“Also recorded” adds a separate entry of the source.

Tests used:
Assay type in all cases: in vivo
[1] = system: Arabidopsis (Columbia-0) roots; experiment: in vitro root assay with synthetic CLE peptides on Arabidopsis roots; details: 10 μM peptide in assay medium, compared with no peptide or Ag-16p
Text: (§1) Mounting evidence supports that the conserved CLE motif represents the major functional domain of plant CLE proteins. Gr-CLE genes encode four different 12-aa CLE motifs (FIG. 1A). To examine the functional sufficiency of these nematode CLE motifs, we conducted in vitro root assays (Fiers et al. 2005) using synthetic dodecapeptides (GrCLE1-1-12p, GrCLE4-1-12p, GrCLE4-2-12p, and GrCLE4-3-12p) corresponding to the four CLE motifs of Gr-CLE proteins. A 16-aa peptide (Ag-16p) (Fiers et al. 2005) corresponding to the C-terminus of AGAMOUS that has no similarity with plant CLE motifs and a 12-aa CLV3 peptide (CLV3-12p) were used as negative and positive controls, respectively. In addition, several peptides, including a mutated GrCLE1-1 dodecapeptide (GrCLE1-1m-12p, with a Gly-to-Ala conversion as in clv3-1 and clv3-5 mutants), a 14-aa GrCLE1-1 peptide (GrCLE1-1-14p, with one additional N-terminal and one additional C-terminal residue compared to Gr-CLE1-1-12p), and three 13-aa peptides of GrCLE4-1-13p, GrCLE4-2-13p, and GrCLE4-3-13p (all contained an extra N-terminal lysine residue compared to the corresponding dodecapeptides), were synthesized and used in the in vitro root assays.
(§2) Peptides with a purity of >70% were synthesized (Sigma-Aldrich Corp., St. Louis, Mo., U.S.A) and dissolved in filter-sterilized 50 mM sodium phosphate buffer. Three Gr-CLE-1 related peptides were synthesized: GrCLE1-1-12p (12 aa, RVIPGGPDPLHN; SEQ ID NO: 12), GrCLE1-1m-12p (12 aa, RVIPGAPDPLHN; SEQ ID NO: 13, with a G-to-A conversion at position 6), and GrCLE1-1-14p (14 aa, KRVIPGGPDPLHNR; SEQ ID NO: 14). Six Gr-CLE-4 related peptides were synthesized: GrCLE4-1-12p (12 aa, RVAGAGPDPIHH; SEQ ID NO: 15), GrCLE4-1-13p (13 aa, KRVAGAGPDPIHH; SEQ ID NO: 16), GrCLE4-2-12p (12 aa, RAVPAGPDPKHH; SEQ ID NO: 17), GrCLE4-2-13p (13 aa, KRAVPAGPDPKHH; SEQ ID NO: 18), GrCLE4-3-12p (12 aa, RGAPAGPDP IHH; SEQ ID NO: 19), and GrCLE4-3-13p (13 aa, KRGAPAGPDPIHH; SEQ ID NO: 20). Positive and negative control peptides included CLV3-12p (12 aa, RTVPSGPDPLHH; SEQ ID NO: 21) and Ag-16p (16 aa, APNNHHYSSAGRQDQT; SEQ ID NO: 22) (Fiers et al., 2005).
(§3) For peptide treatments, seeds of wild-type Arabidopsis (Columbia-0) and potato, nonhost and host of G. rostochiensis, respectively, were surface-sterilized and plated on square plates (8-12 seeds per plate) containing the assay medium (Fiers et al. 2005, supra) with 10 μM of each peptide. Assay plates were placed vertically in a growth chamber and cultured at 23° C. for 16 h of light and 8 h of dark. The root length was measured from the base of the hypocotyl to the tip of the primary root at several time points after plating. Two independent experiments were conducted.

potato roots = experiment: in vitro root assay with synthetic CLE peptides on potato roots; details: 10 μM peptide in assay medium, compared with no peptide or Ag-16p
Text: as §1, §2, §3

[2] = system: Arabidopsis (Columbia-0) root apical meristem; experiment: microscopic examination of root apical meristem of peptide treated Arabidopsis roots; details: Arabidopsis primary roots 8 days after peptide treatment
Text: To examine root meristems, primary root tips were excised from peptide treated Arabidopsis seedlings or from transgenic potato hairy roots and immediately mounted in water onto a glass slide. Roots were examined under an Olympus BX-50 microscope equipped with Nomarski optics and images were captured using a QImaging Retiga EXi digital CCD camera (QImaging, Surrey, BC, Canada). The root apical meristem (RAM) regions of individual primary roots that covered the distance from the position around the quiescent center to the position where elongated root cells immediately follow cytoplasm-dense meristematic cells were measured microscopically. The collected data were analyzed using the MetaMorph imaging analysis software (Universal Imaging Corporation, Downingtown, Pa., U.S.A.)

| Sequence | suppression of root growth (length of main root) [1] | suppression of root growth (length of main root) (potato roots) | root meristem consumption (size of root apical meristem) [2] | suppression of root growth (length of main root) ([1]; listed as GrCLE1-1) |
| --- | --- | --- | --- | --- |
| RTVPSGPDPLHH (listed as Globodera rostochiensis) [CLV3-12p, 12-aa CLV3 peptide, positive control, reference compound] | severely suppressed root growth | severely suppressed root growth | showed a phenotype of root meristem consumption | – |
| RVIPGGPDPLHN (listed as Globodera rostochiensis) [GrCLE1-1-12p, synthetic 12 aa dodecapeptide of the GrCLE1-1 CLE motif] | suppressed root growth; also recorded: comparable level of suppression as CLV3-12p; also recorded: significantly shorter | suppressed root growth; also recorded: comparable level of suppression as CLV3-12p; also recorded: significantly shorter | more severe; also recorded: significantly less | higher degree of root suppression |
